Reference: patent US20240350525A1, “HEART DISEASE AGENT AND METHOD FOR IMPROVING HEART DISEASE” (MIRAILAB BIOSCIENCE INC., priority 2021, published 2024)

System: subject
Assay: Electrocardiography before and after oral ingestion of NMN capsules in a subject with suspected ventricular extrasystole
Format: in vivo, human
Experimental: On Jun. 4, 2020, electrocardiography was performed on a subject by placing the subject in the supine position, putting clips on the extremities, attaching electrodes to the chest, and using an electrocardiograph (product name: Electrocardiograph ECG-2250, manufactured by NIHON KOHDEN CORPORATION) with leads I to III and leads aVR, aVL, and aVF. The paper feed speed of the electrocardiogram was set to 25 mm/second, and the vertical axis was set to 1 mV=10 mm for recording. The result is indicated in the electrocardiogram of FIG. 2 (horizontal axis: time (second), vertical axis: electric potential (mV)).
Afterwards, from Oct. 18, 2020, the subject was caused to ingest (take orally) one capsule per day of NMN pure 3000 plus (NMN 50 mg/capsule, manufactured by MIRAILAB BIOSCIENCE Inc., trade name) for 47 consecutive days.
Then, on Jan. 4, 2021, electrocardiography was performed again on the above-described subject similarly as described above. The result is indicated in the electrocardiogram of FIG. 3 (horizontal axis: time (second), vertical axis: electric potential (mV)). […] From this, it was confirmed that NMN ingestion was effective for electrocardiogram abnormalities and arrhythmias.

NC(=O)c1ccc[n+]([C@@H]2O[C@H](COP(=O)([O-])O)[C@@H](O)[C@H]2O)c1 [NMN, nicotinamide mononucleotide]
heart rate (after ingestion of one capsule per day (NMN 50 mg/capsule) for 47 consecutive days, 69 bpm before ingestion): 57 bpm
electrocardiogram waveforms (one subject, one capsule per day (NMN 50 mg/capsule) orally for 47 consecutive days, ECG on Jan. 4, 2021): appeared with regularity in order
QRS complexes having a wide and odd-shaped waveform (one subject, one capsule per day (NMN 50 mg/capsule) orally for 47 consecutive days, ECG on Jan. 4, 2021, complexes were recognized before ingestion): not recognized
effect on electrocardiogram abnormalities and arrhythmias (overall conclusion, one subject, NMN 50 mg/day orally for 47 consecutive days): effective
